Measured values as given in US20240317792A1, “CYCLIC DINUCLEOTIDE METAL COMPOUND, AND PREPARATION AND APPLICATION THEREOF” (HANGZHOU XINGAO BIOTECHNOLOGY CO., LTD., priority 2022, published 2024).

Legend:
[1] = tested on: APP/PSI transgenic AD model mice; test: Morris water maze spatial probe test, cognitive ability of AD model mice; format: in vivo; conditions: 10 mg/kg intraperitoneal injection once every 2 days for 60 days
Text: Experimental materials, purchased from Shanghai Model Organisms Center Inc, were APP/PSI transgenic AD model mice, aged 4 months old and weighing 24-26 g. The AD model mice were randomly divided into 7 groups (10 mice in each group). The 7 groups were listed as follows: A: AD model group, as a negative control group (administration of normal saline); B: cGAMP group, as a positive control group (administration of cyclic dinucleotide); C: [Li2(cGAMP)] group (administration of lithium cyclic dinucleotide prepared in Example 1); D: [Mg(cGAMP)] group (administration of magnesium cyclic dinucleotide prepared in Example 2); E: [Zn(cGAMP)] group (administration of zinc cyclic dinucleotide prepared in Example 5); F: [Mn(cGAMP)] group (administration of manganese cyclic dinucleotide prepared in Example 3); G: [Fe(cGAMP)] group (administration of ferrous cyclic dinucleotide prepared in Example 4). The administration in groups C-G was performed as follows. The powdered cyclic dinucleotide metal compounds were prepared into solutions of required concentration with normal saline, respectively. The administration dosage was 10 mg/kg, and the administration was performed via intraperitoneal injection once every 2 days for 60 consecutive days.
The Morris water maze test was performed in a round pool, 1 m in diameter, 50 cm high and 30 cm deep with a white bottom of the pool. Water temperature of the Morris water maze was 23±2° C. Four equidistant points, N, E, S and W, were marked on a pool wall as four starting points for tests. The pool was divided into four quadrants, and a platform, which was equidistant from the pool wall and a center of the pool, was placed in the third quadrant. The platform was immersed under water at a depth of 1 cm, so that the platform was not visible. A lot of reference clues (the reference clues were triangles, quadrangles, circles, and diamonds with different colors placed in each quadrant) were pasted around the pool and kept constant for the AD model mice to locate the platform.
A place navigation test was performed for 6 days, and the AD model mice were subjected to training 4 times per day at fixed time spans. At the beginning of the training, the platform was placed in the […]. An AD model mouse was placed into the water facing the pool wall at any one of the four starting points. A record system was used to record time and a swimming path that the AD model mouse found the platform. The AD model mouse was placed into the water at different four starting points (in different quadrants) in the 4-time-training. The AD model mouse found the platform and rested on the platform for 10 seconds followed by next test. Or if the AD model mouse could not find the platform within 90 seconds (a latency was recorded as 90 seconds), the AD model mouse was guided to the platform by an experimenter and rested for 10 seconds followed by next test.
24 h after the place navigation test, the platform was removed. Then the AD model mouse was placed into the water in the third quadrant, the swimming path in 180 s was recorded. Remain time and a number of the AD model mouse crossing through a location of the platform of the AD model mouse in a target quadrant (the third quadrant) were recorded to observe the spatial localization ability of the AD model mouse. SPSS10.0 software was used to process, and one-way analysis of variance (ANOVA) was adopted to compare significance of difference between the 7 groups.

[2] = tested on: ICR mice with ischemic cerebrovascular injury; test: MCAO ischemic cerebrovascular injury model, Zea longa behavioral score; format: in vivo; set-up: key: Zea longa: 0 = no neurological deficit, 4 = no spontaneous walking; conditions: 10 mg/kg intraperitoneal, Zea longa 5-point score
Description: Experimental animals: healthy male Institute of Cancer Research (ICR) mice, weighing 18-20 grams, purchased from Shanghai SLAC Laboratory Animal Co. Ltd, with quality certificate No. (SCXK (Shanghai) 2007-0005), and kept in clean animal houses.
Mouse model: an ischemic cerebrovascular injury model was prepared by a middle cerebral artery occlusion (MCAO) method to verify therapeutic effect of the cyclic dinucleotide metal compounds on ischemic cerebrovascular diseases in the experimental animals.
Experimental method: the ICR mice were anesthetized with 10 wt. % of chloral hydrate by intraperitoneal injection, a mid-cervical incision was made to isolate and ligate a proximal segment, a carotid artery and a branch vessel of a right common carotid artery. A right internal carotid artery was isolated, a pterygoid artery was isolated down along the right internal carotid artery followed by root ligation. A wire was prepared on the proximal segment, and an arterial clip was placed on a distal segment. An incision was made at a branch of the right common carotid artery, and a nylon wire was tied in. A monofilament entered the internal carotid artery, a cranium to an anterior cerebral artery to block all sources of blood flow in a middle cerebral artery. The arterial clip was removed, and the wire prepared on the proximal segment was tied in followed by skin suture. The experimental animals were subjected to cage culture after operation. 2 h after the ischemia, the experimental animals were subjected to abdominal administration by injection, and the nylon wire was removed for reperfusion. 8 h after the reperfusion, the experimental animals were subjected to re-administration. After the operation, behavioral score was performed using a single-blind method with reference to the Zea longa 5-point scoring system, which was shown as follows: 0 point, normal performance with no neurological deficits; 1 point, contralateral forepaws could not fully extend; 2 points, circling to the opposite side when walking; 3 points, falling to the opposite side; 4 points, no spontaneous walking and loss of consciousness.
In the experiment, the ICR mice were divided into 7 groups (10 mice in each group). The 7 groups were listed as follows: A: AD model group, as a negative control group (administration: normal saline); B: cGAMP group, as a positive control group (administration: cyclic dinucleotide); C: [Li2(cGAMP)] group (administration: lithium cyclic dinucleotide prepared in Example 1); D: [Mg(cGAMP)] group (administration: magnesium cyclic dinucleotide prepared in Example 2); E: [Zn(cGAMP)] group (administration: zinc cyclic dinucleotide prepared in Example 5); F: [Mn(cGAMP)] group (administration: manganese cyclic dinucleotide prepared in Example 3); G: [Fe(cGAMP)] group (administration: ferrous cyclic dinucleotide prepared in Example 4); where a preparation method for administration in groups C-G were as follows. Powders prepared in the groups C-G were prepared to solutions of required concentration with normal saline. The administration dosage of every group was 10 mg/kg. And the ICR mice were administered by intraperitoneal injection. The ICR mice were administered once after 2 h of ischemia, then the nylon wire was removed for reperfusion. 8 h after the reperfusion, the ICR mice were administered once. After 24 h, the ICR mice were administered once a day for 7 consecutive days.

SMILES | Percentage of time of the AD model mice crossing through the platform in the third quadrant [1] [%] | Score (7 h after operation) [2] | Score (24 h after operation) [2]
Nc1nc2c(ncn2C2OC3COP(=O)([O-])OC4C(COP(=O)([O-])OC2C3O)OC(n2cnc3c(N)ncnc32)C4O)c(=O)[nH]1.[Mn+2] (stereo not drawn) [[Mn(cGAMP)], manganese cyclic dinucleotide] | 0.83 ± 0.21 | 1.38 ± 0.27 | 1.62 ± 0.39
Nc1nc2c(ncn2[C@@H]2O[C@@H]3COP(=O)([O-])O[C@H]4[C@@H](O)[C@H](n5cnc6c(N)ncnc65)O[C@@H]4COP(=O)([O-])O[C@@H]2[C@@H]3O)c(=O)[nH]1.[Li+].[Li+] [[Li2(cGAMP)], lithium cyclic dinucleotide] | 0.91 ± 0.18 | 1.49 ± 0.26 | 1.82 ± 0.19
Nc1nc2c(ncn2[C@@H]2O[C@@H]3COP(=O)([O-])O[C@H]4[C@@H](O)[C@H](n5cnc6c(N)ncnc65)O[C@@H]4COP(=O)([O-])O[C@@H]2[C@@H]3O)c(=O)[nH]1.[Zn+2] [[Zn(cGAMP)], zinc cyclic dinucleotide] | 0.86 ± 0.16 | 1.31 ± 0.15 | 1.57 ± 0.38
Nc1nc2c(ncn2[C@@H]2O[C@@H]3COP(=O)(O)O[C@H]4[C@@H](O)[C@H](n5cnc6c(N)ncnc65)O[C@@H]4COP(=O)(O)O[C@@H]2[C@@H]3O)c(=O)[nH]1 [cGAMP, 2′3′-cGAMP, reference compound] | 0.62 ± 0.17 | 1.67 ± 0.41 | 2.15 ± 0.32
Nc1nc2c(ncn2[C@@H]2O[C@@H]3COP(=O)([O-])O[C@H]4[C@@H](O)[C@H](n5cnc6c(N)ncnc65)O[C@@H]4COP(=O)([O-])O[C@@H]2[C@@H]3O)c(=O)[nH]1.[Mg+2] [[Mg(cGAMP)], magnesium cyclic dinucleotide] | 0.78 ± 0.10 | 1.09 ± 0.18 | 1.18 ± 0.24
Nc1nc2c(ncn2C2OC3COP(=O)([O-])OC4C(COP(=O)([O-])OC2C3O)OC(n2cnc3c(N)ncnc32)C4O)c(=O)[nH]1.[Fe+2] (stereo not drawn) [[Fe(cGAMP)], ferrous cyclic dinucleotide] | 0.81 ± 0.23 | 1.41 ± 0.29 | 1.67 ± 0.35
